Test results: ChEMBL document CHEMBL4619726, “Synthesis of novel tryptanthrin derivatives as dual inhibitors of indoleamine 2,3-dioxygenase 1 and tryptophan 2,3-dioxygenase” (Bioorg Med Chem Lett, 2020)
Values after ≈ are worked out from the molar mass of the structure shown.

Tests used:
[1] = biological target: T1, Indoleamine 2,3-dioxygenase 1 (Homo sapiens, UniProt P14902); assay: Inhibition of IDO1 (unknown origin)
[2] = biological target: T1, Indoleamine 2,3-dioxygenase 1; assay: Inhibition of IDO1 in human HeLa cells; type: cell-based
[3] = Solubility of compound in water; type: physicochemical
[4] = biological target: T2, Tryptophan 2,3-dioxygenase (Homo sapiens, UniProt P48775); assay: Inhibition of recombinant human TDO expressed in Escherichia coli BL21 using L-Trp as substrate incubated for 30 mins by enzymatic assay
Target sequence in this assay (P48775 whole entry): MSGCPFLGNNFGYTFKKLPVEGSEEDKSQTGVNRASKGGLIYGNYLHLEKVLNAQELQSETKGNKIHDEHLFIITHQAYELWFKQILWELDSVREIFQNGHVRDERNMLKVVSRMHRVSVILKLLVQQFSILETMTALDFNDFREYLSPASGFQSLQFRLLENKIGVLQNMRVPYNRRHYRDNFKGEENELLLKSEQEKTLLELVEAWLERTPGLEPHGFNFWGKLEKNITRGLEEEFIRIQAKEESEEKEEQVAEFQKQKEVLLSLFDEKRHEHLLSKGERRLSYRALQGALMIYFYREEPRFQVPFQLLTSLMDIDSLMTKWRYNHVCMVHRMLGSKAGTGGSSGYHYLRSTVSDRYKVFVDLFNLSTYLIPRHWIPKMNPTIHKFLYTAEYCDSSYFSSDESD

[5] = biological target: T2, Tryptophan 2,3-dioxygenase; assay: Potency index, ratio of IC50 of LM10 to IC50 of compound for inhibition of TDO (unknown origin)
Target sequence in this assay (P48775 whole entry, looked up): as the sequence (P48775 whole entry) above

[6] = biological target: T2, Tryptophan 2,3-dioxygenase; assay: Potency index, ratio of IC50 of 8-fluorotryptanthrin to IC50 of compound for inhibition of TDO (unknown origin)
Target sequence in this assay (P48775 whole entry, looked up): as the sequence (P48775 whole entry) above

T1 sequence (P14902 whole entry): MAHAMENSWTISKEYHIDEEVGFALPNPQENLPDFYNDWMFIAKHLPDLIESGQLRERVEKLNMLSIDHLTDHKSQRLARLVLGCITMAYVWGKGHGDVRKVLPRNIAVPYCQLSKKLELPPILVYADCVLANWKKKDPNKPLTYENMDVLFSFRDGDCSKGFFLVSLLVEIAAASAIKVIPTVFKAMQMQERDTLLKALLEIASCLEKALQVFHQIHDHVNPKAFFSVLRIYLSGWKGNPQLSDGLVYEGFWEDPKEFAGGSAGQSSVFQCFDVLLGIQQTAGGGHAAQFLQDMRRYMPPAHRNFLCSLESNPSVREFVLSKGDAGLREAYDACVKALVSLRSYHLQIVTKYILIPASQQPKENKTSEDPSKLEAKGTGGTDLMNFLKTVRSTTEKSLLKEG

Row | Compound | IC50 [1] | IC50 [2] | solubility [3] | IC50 [4] | Ratio IC50 [5] | Ratio IC50 [6]
1 | O=Cc1ccc2nc3n(c(=O)c2c1)-c1ccc(F)cc1C3=O | 460 nM | 160 nM | 0.862 µg/mL (≈ 2.93 µM) | 60 nM | 193 | 16
2 | CCOC(=O)/C=C/c1ccc2nc3n(c(=O)c2c1)-c1ccc(F)cc1C3=O | 190 nM | 20 nM | 0.735 µg/mL (≈ 2.02 µM) | 370 nM | – | –
3 | O=C1c2cc(F)ccc2-n2c1nc1ccc(Cn3ccnn3)cc1c2=O | 780 nM | 80 nM | 1.28 µg/mL (≈ 3.69 µM) | 1130 nM | – | –
4 | O=C1c2cc(F)ccc2-n2c1nc1ccc(CN3CCCC3C(=O)O)cc1c2=O (stereo not drawn) | 550 nM | 3760 nM | 15.4 µg/mL (≈ 39.1 µM) | 180 nM | – | –
5 | O=C1c2cc(F)ccc2-n2c1nc1ccc(CN3CCC(C(=O)O)CC3)cc1c2=O | 480 nM | 3100 nM | 16.7 µg/mL (≈ 40.9 µM) | 450 nM | – | –
6 | COC(=O)C1CCN(Cc2ccc3nc4n(c(=O)c3c2)-c2ccc(F)cc2C4=O)CC1 | 1200 nM | 150 nM | 1.05 µg/mL (≈ 2.5 µM) | 990 nM | – | –
7 | O=C1c2cc(F)ccc2-n2c1nc1ccccc1c2=O | – | – | 0.741 µg/mL (≈ 2.78 µM) | – | – | –
8 | COC(=O)C1CCCN1Cc1ccc2nc3n(c(=O)c2c1)-c1ccc(F)cc1C3=O (stereo not drawn) | 460 nM | 700 nM | 0.893 µg/mL (≈ 2.19 µM) | 300 nM | – | –
9 | O=C1c2cc(F)ccc2-n2c1nc1ccc(B(O)O)cc1c2=O | 1790 nM | 230 nM | 0.69 µg/mL (≈ 2.23 µM) | 1210 nM | – | –
10 | CC1(C)OB(c2ccc3nc4n(c(=O)c3c2)-c2ccc(F)cc2C4=O)OC1(C)C | 13100 nM | 750 nM | 0.625 µg/mL (≈ 1.59 µM) | 6020 nM | – | –
11 | O=C1c2cc(F)ccc2-n2c1nc1ccc(CN3CCCC(C(=O)O)C3)cc1c2=O (stereo not drawn) | 570 nM | 1840 nM | 14.3 µg/mL (≈ 35.1 µM) | 420 nM | – | –
12 | O=C(O)/C=C/c1ccc2nc3n(c(=O)c2c1)-c1ccc(F)cc1C3=O | 120 nM | 60 nM | 1.12 µg/mL (≈ 3.34 µM) | 30 nM | 386 | 32
13 | COC(=O)C1CCCN(Cc2ccc3nc4n(c(=O)c3c2)-c2ccc(F)cc2C4=O)C1 (stereo not drawn) | 1430 nM | 370 nM | 1.09 µg/mL (≈ 2.58 µM) | 2870 nM | – | –
